Data published in publication PMC11898488, “A2A Adenosine Receptor Antagonists and Their Efficacy in Rat Models of Parkinson’s Disease” (Cells, 2025).
Entries after “also recorded” stand apart in the source; their conditions may differ.

Assays:
[1] = target: T1, human A2AAR (Homo sapiens, UniProt P29274); test: Radioligand binding, displacement of [3H]NECA at human A2AAR in CHO cells; settings: for Selectivity A1/A2A / Selectivity A3/A2A: ratio of Ki values at human ARs; for Ki: [3H]-NECA displacement, human A2AAR in CHO cells, geometric mean with 95% confidence limits, read-out: Ki A2A
T1 construct: expressed in transfected cells; host or cells: CHO cells, crude membrane fractions
Description: The radioligand binding experiments were carried out exactly as described previously. For A1AR binding, 1 nM [^3H]CCPA was used as a radioligand, whereas 30 and 10 nM [^3H]NECA were used for A2A and A3 ARs, respectively. Nonspecific binding was determined in the presence of 1 mM theophylline (A1AR) or […] R-PIA (A2A and A3 ARs). Ki values were calculated from competition curves by nonlinear curve fitting with the program SCTFIT [31].
CHO cells stably transfected with human ARs were grown adherently and maintained in Dulbecco’s Modified Eagles Medium with nutrient mixture F12 (DMEM/F12) without nucleosides, containing 10% fetal calf serum, penicillin (100 U/mL), streptomycin (100 μg/mL), L-glutamine (2 mM), and Geneticin (G-418, 0.2 mg/mL) at 37 °C in 5% CO2/95% air, as described earlier. For radioligand binding studies and measurement of adenylyl cyclase activity, crude membrane fractions were prepared from fresh or frozen cells with two different protocols described earlier. The determination of adenylyl cyclase activity followed the procedure described earlier. IC50 values for the inhibition of adenylyl cyclase stimulated (in the case of A2BAR) with 5 μM NECA were calculated with the Hill equation and converted to Ki values with the Cheng and Prusoff equation [32].
[^3H]CCPA (2-chloro-N^6-cyclopentylAdo) and [^3H]NECA (5′-N-ethylcarboxamidoAdo) were used as specific radioligands at A1ARand A2A / A3 ARs, respectively. Furthermore, the ability of the same compounds to inhibit NECA-stimulated adenylyl cyclase activity was evaluated at the A2BAR subtype. The results of the binding studies (A1, A2A, and A3 ARs) and functional data (A2BAR) are reported in Table 1 as Ki or IC50 values in nM, together with the data on the reference compounds 1–3.

[2] = target: T1, human A2AAR; test: GloSensor cAMP assay in CHO cells expressing human A2AAR; type: cell-based; settings: for cAMP production when tested alone (agonist behavior): A2AAR transfected CHO cells, compound alone, in comparison with NECA; for IC50: CHO cells expressing hA2AARs, GloSensor cAMP assay, mean ± standard error, read-out: IC50, inhibition of NECA-induced cAMP production
Description: The performed GloSensorÏ cAMP assay is a non-radioactive method that offers a simple and powerful approach to monitor G-protein coupled receptor (GPCR) activity through change in the intracellular cAMP concentration.
Cell culture: CHO cells stably expressing human A2AAR were grown adherently and maintained in Dulbecco’s modified Eagle’s medium with nutrient mixture F12 (DMEM/F12 with phenol red), supplemented with 10% fetal bovine serum (FBS), 100 U mL^−1 penicillin, 100 µg mL^−1 streptomycin, 2.5 µg mL^−1 amphotericin, 1 mM sodium pyruvate and 0.1 mg mL^−1 geneticin (G418), at 37 °C and aerated with 5% CO2:95% […]. Cells were grown to approximately 70–80% confluence, and transient transfection with a plasmid encoding the biosensor was performed.
GloSensorÏ cAMP assay: Cells were harvested in CO2-independent medium and were counted in a Neubauer chamber. The desired number of cells was incubated in equilibration medium containing a 3% v/v GloSensor^TM cAMP reagent stock solution, 10% FBS, and 87% CO2 independent medium. After 2 h of incubation, the cells were dispensed in the wells of a 384-well plate and, when a steady-state basal signal was obtained, the NECA referent agonist or the understudy compounds, at different concentrations, were added. […] The antagonist profile was evaluated by assessing their ability to counteract an agonist-induced increase in cAMP accumulation. The cells were incubated in the reaction medium (10 min at room temperature) with different understudy molecule concentrations and then treated with NECA. After 10 min, various luminescence reads were performed at different incubation times.
Statistical analysis: Responses were expressed as a percentage of the maximal relative luminescence units (RLU). Concentration–response curves were fitted by a nonlinear regression with the Prism 4.0 program (GraphPAD Software, San Diego, CA, USA). To quantify the NECA agonist potency, the EC50 value was calculated. The EC50 value is the concentration of agonists required to produce 50% of the maximum effect. To evaluate the antagonist profile, the IC50 values were determined. The IC50 value is the concentration of antagonists that produces a 50% inhibition of the agonist effect. Each concentration was tested three times in triplicate, and the values are given as the mean ± standard error.

[3] = test system: catalepsy induced by haloperidol; test: Haloperidol-induced catalepsy, vertical grid test; type: in vivo, rat; settings: rats; for Effect on catalepsy induced by haloperidol: 5 mg/kg i.p. given 90 min after haloperidol 0.2 mg/kg s.c., 90 min testing period; for Duration of anticataleptic effect: 5 mg/kg i.p., haloperidol 0.2 mg/kg s.c., time after drug administration
Description: Male Sprague Dawley rats (200–300 g, Charles River, Calco, Italy) were housed in groups of 4–6 in standard polycarbonate cages with sawdust bedding and maintained on a 12 h light/dark cycle (lights on at 8:00 am). Food and water were freely available. All experiments were conducted in accordance with the guidelines for animal experimentation of the EU directives (2010/63/EU; L.276; 22 September 2010) and approved by the Committee on Animal Experimentation (CESA; protocol code 29456, 21 March 2012) of the University of Cagliari. Experiments were designed to minimize animal discomfort and to reduce the number of animals used.
Catalepsy was estimated using the vertical grid test. The test was carried out by placing a rat with the four paws on a wire grid (43–25 cm) at an angle of about 70° in respect to the bench surface. Catalepsy was determined by measuring the time in which the rat maintained a given position. The test was terminated when the rat moved one paw or when 90 s had elapsed from the placement of the rat on the grid. Catalepsy assessments were repeated every 10–15 min intervals. […] A2AAR antagonists were injected 90 min after haloperidol administration to evaluate their effects on deeply cataleptic rats. […]
For catalepsy evaluation, the mean and S.E.M. of the seconds of immobility during each test section were calculated. Significant differences between groups were evaluated by one-way analysis of variance (ANOVA) followed by a Newman–Keuls post hoc test.
After 40 min of haloperidol administration (0.2 mg/kg s.c.), a significant catalepsy was induced in rats, which reached its maximum at 60–70 min [18, 24]. Therefore, the administration of the A2AAR antagonists was made 90 min after haloperidol to evaluate their effects on deeply cataleptic rats.

[4] = test system: spontaneous motility; test: Spontaneous motility in rats; type: in vivo, rat; settings: for Effect on spontaneous motility: 5 mg/kg i.p.; for Effect on motility at higher doses: 10 and 15 mg/kg

T1 sequence (P29274 whole entry): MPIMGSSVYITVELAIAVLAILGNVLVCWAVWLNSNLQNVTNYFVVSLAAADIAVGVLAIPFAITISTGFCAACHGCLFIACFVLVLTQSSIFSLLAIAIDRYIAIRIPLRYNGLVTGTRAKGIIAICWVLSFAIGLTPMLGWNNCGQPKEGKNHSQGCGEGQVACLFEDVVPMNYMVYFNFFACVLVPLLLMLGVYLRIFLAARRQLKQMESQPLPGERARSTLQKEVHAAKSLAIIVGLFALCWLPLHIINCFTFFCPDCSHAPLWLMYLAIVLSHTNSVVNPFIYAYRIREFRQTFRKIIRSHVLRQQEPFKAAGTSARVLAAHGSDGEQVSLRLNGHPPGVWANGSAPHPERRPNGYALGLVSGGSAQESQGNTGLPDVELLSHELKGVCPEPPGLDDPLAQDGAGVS

Compound	Selectivity A1/A2A [1]	Selectivity A3/A2A [1]	cAMP production when tested alone (agonist behavior) [2]	IC50 [2] [nM]	Efficacy on catalepsy, preliminary studies ([3]; 5 mg/kg)	Effect on catalepsy induced by haloperidol [3]	Duration of anticataleptic effect [3] [min]	Efficacy on catalepsy, preliminary studies ([3]; 1 and 3 mg/kg)	Effect on spontaneous motility [4]	Effect on motility at higher doses [4]	Ki [1] [nM]
CCn1c(Br)nc2c(N)nc(OCCc3ccccc3)nc21 [Compound 1, 8-bromo-9-ethyl-2-phenetoxyadenine]	14	641	not able to stimulate cAMP production; also recorded: no increase in cAMP production was detected	108 ± 23	fully effective	significantly antagonized catalepsy	10 to 90	low efficacy on catalepsy	did not modify spontaneous motility	caused hypermotility	–
CCOc1nc2c(N)nc(OCCc3ccccc3)nc2n1CC [Compound 4, 8-ethoxy-9-ethyl-2-phenethoxyadenine]	23	97	not able to stimulate cAMP production; also recorded: no increase in cAMP production was detected	278 ± 49	fully effective	significantly antagonized catalepsy; also recorded: longer duration and a strong intensity	10 to 90	low efficacy on catalepsy	did not modify spontaneous motility	caused hypermotility	3.7
CCn1c(I)nc2c(N)nc(OCCc3ccccc3)nc21 [Compound 5, 9-ethyl-8-iodo-2-phenethoxy-9H-purin-6-amine]	21	408	not able to stimulate cAMP production; also recorded: no increase in cAMP production was detected	114 ± 25	fully effective	significantly antagonized catalepsy	≤ 60	low efficacy on catalepsy	did not modify spontaneous motility	caused hypermotility	1.2
